Results on 105 molecules are retold here after PubChem BioAssay AID1996.

Values after ≈ are worked out from the molar mass of the structure shown. Some results are limits rather than exact numbers.

For this series the following is noted: buffer; pH 7.4; 200.0 µM.
On to `N#Cc1ccc(NC(=O)CN2CCCC2)cc1Cl`, for which the kinetic solubility (commonly the concentration staying in solution when a stock, usually in DMSO, is diluted into the medium) is over 39.6 µg/mL. In turn, `Cn1c(/C(C#N)=C(\O)c2ccc([N+](=O)[O-])s2)nc2ccccc21` returned a kinetic solubility of under 0.2 µg/mL. Turning to `Nc1nc2c(ncn2C2C[C@H](O)[C@@H](CO)O2)c(=O)[nH]1` (stereo not given in full), the solubility (kinetic) is over 40.1 µg/mL. `CCCCNC(=O)C1(NC(=O)Nc2ccccc2)CCCCC1` returned a solubility (kinetic) of 5.5 µg/mL (≈ 17.3 µM). Then `O/N=C/c1ccn(-c2ccc(Br)cc2)c1`, with 2.6 µg/mL (≈ 9.81 µM). For `CC(CCc1ccccc1)NC(=O)CN1CCSc2ccccc21` (stereo not given), the solubility (kinetic) was 20.1 µg/mL (≈ 59 µM).

Regarding `O=C1CN(C(=O)c2ccc(Cl)nc2)c2ccccc2N1`, the kinetic solubility stood at 33.3 µg/mL (≈ 116 µM). In the case of `COc1ccc(C(=O)NCCCNC(=O)c2ccco2)cc1OC`, the kinetic solubility was over 49.9 µg/mL. `Cc1ccnc2c1ccc1ccccc12` had a kinetic solubility of under 0.4 µg/mL. Regarding `COCCn1c(SCC(=O)N2CCOCC2)nc2ccccc2c1=O`, the kinetic solubility was found to be 51.5 µg/mL (≈ 142 µM).

`Cc1ccc(C)c(NS(=O)(=O)c2ccc3oc(=O)ccc3c2)c1` had a solubility (kinetic) of 1.4 µg/mL (≈ 4.25 µM). `CC(=O)CSc1nc(-c2ccccc2)c(-c2ccccc2)o1` yielded a kinetic solubility of 3.1 µg/mL (≈ 10 µM). The molecule `Cl.c1ccc2c(N3CCNCC3)cccc2c1` came in with a kinetic solubility of over 37.3 µg/mL. Then `O=C1CC(NCc2ccc(F)cc2)C(=O)N1c1ccccc1` (stereo not given), with 43.6 µg/mL (≈ 146 µM); and `COC(=O)c1ccc(NC(=O)c2ccc3nccnc3c2)cc1`, with 3.5 µg/mL (≈ 11.4 µM). Then `O=C(Nc1ccccc1)/C(=C\c1ccccc1)NC(=O)c1ccco1`, with 0.7 µg/mL (≈ 2.11 µM). For the molecule `O=C1CC(N2CCN(S(=O)(=O)c3ccccc3F)CC2)C(=O)N1c1ccc(F)cc1F` (stereo not given), the kinetic solubility was over 68 µg/mL. Then `O=C(O)C1C2CCC(O2)C1C(=O)Nc1ccc(Br)cc1F` (stereo not given), with over 53.7 µg/mL; and `CC(CCc1ccccc1)NC(=O)CN(C)Cc1ccccc1F` (stereo not given), with 48.4 µg/mL (≈ 147 µM); and `Cc1cc(C)cc(Nc2ncnc3nc[nH]c23)c1`, with 7.7 µg/mL (≈ 32.2 µM). The figure for `Cl.O=C(CN1CCCCC1)c1ccc2c(c1)OCO2` is over 42.6 µg/mL; for `O=C(C1CC1)N1CCc2sccc2C1c1ccc(Cl)cc1` (stereo not given) it is under 0.7 µg/mL. The molecule `CCCc1nc(SC)[nH]c(=O)c1C` returned a solubility (kinetic) of over 29.7 µg/mL. The figure for `CC(OC(=O)Cn1ccccc1=O)C(=O)Nc1cc(Cl)cc(Cl)c1` (stereo not given) is over 55.4 µg/mL. The figure for `CN(C)S(=O)(=O)c1cccc(C(=O)N2CCN(C(=O)C3CCCO3)CC2)c1` (stereo not given) is over 59.3 µg/mL; for `CCc1nnc(NC(=O)c2cc(C)nc3ccccc23)s1` it is over 44.8 µg/mL. Then `COc1ccc(C)cc1NC(=S)Nc1ccccc1SC`, with 10.5 µg/mL (≈ 33 µM); and `Cc1ccc(CONC(=O)c2cccc(C)c2)cc1`, with 38.2 µg/mL (≈ 150 µM); and `O=C(CC1NCCNC1=O)Nc1ccccc1` (stereo not given), with over 35 µg/mL. `CC(C)C(=O)Nc1ccc(N2CCOCC2)c(S(=O)(=O)Nc2ccccc2Cl)c1` registered a kinetic solubility of 2.8 µg/mL (≈ 6.39 µM). Then `Cc1c(C(=O)N(C)C(C)c2ccncn2)oc2c(F)cccc12` (stereo not given), with over 47 µg/mL; and `Cc1ccc(S(=O)(=O)N(C)CC(=O)N2CCCCCC2)cc1`, with 48.4 µg/mL (≈ 149 µM); and `S=C(c1ccc(-c2ccc(Br)cc2)o1)N1CCOCC1`, with under 0.8 µg/mL. Regarding `CS(=O)(=O)CCSc1ncccc1C(=O)NCc1cccs1`, the solubility (kinetic) is 53.1 µg/mL (≈ 149 µM).

In the case of `COCC(=O)Nc1ccc2c(c1)OCC(=O)N2Cc1ccccc1F`, the solubility (kinetic) is 46.4 µg/mL (≈ 135 µM).

In the case of `Clc1ccc(-c2nc3ccccn3c2CN2CCSCC2)cc1`, the solubility (kinetic) came out at 1.9 µg/mL (≈ 5.53 µM). `O=C(NCc1ccco1)c1ccc([N+](=O)[O-])cc1Cl` returned a kinetic solubility of 40 µg/mL (≈ 143 µM). `COc1ccc(OCC(O)CNC(=O)c2sccc2Cl)cc1` (stereo not given): the solubility (kinetic) is 46 µg/mL (≈ 135 µM). The molecule `CC(=O)N1c2ccccc2C(=O)C1N(C)c1ccc(C)cc1` (stereo not given) gave a solubility (kinetic) of 16.9 µg/mL (≈ 57.4 µM). In turn, `O=C(O)c1ccc(NC(=S)NC(=O)c2cccnc2)cc1` displayed a kinetic solubility of over 45.2 µg/mL. Regarding `CCOC(=O)c1ccc(N2C(=O)CC(Sc3nc(C)cc(C)n3)C2=O)cc1` (stereo not given), the solubility (kinetic) was 4 µg/mL (≈ 10.4 µM). As to `O=c1[nH]c2ccccc2c(O)c1-[n+]1ccccc1.[Cl-]`, the solubility (kinetic) was determined as 40.5 µg/mL. In the case of `COC(=O)c1c(C(=O)OC)c2ccccn2c1C(=O)c1ccccc1`, the kinetic solubility was found to be 6.2 µg/mL (≈ 18.4 µM).

Molecule `O=C(CN1CCc2cc3c(cc2C1)OCCCO3)Nc1ccccc1` displayed a kinetic solubility of 4.4 µg/mL (≈ 13 µM). Then `Cc1[nH]c2ccccc2c1C(=O)C(=O)NCCOc1ccccc1`, with 2.2 µg/mL (≈ 6.82 µM). In the case of `O=C(COc1cccc2c1CCNC2=O)Nc1ccc(F)cc1`, the solubility (kinetic) was over 47.1 µg/mL. In the case of `CCOc1ccc(NC(=O)COC(=O)CC2CC3CCC2C3)cc1` (stereo not given), the kinetic solubility is 16.9 µg/mL (≈ 51 µM).

As for `COc1ccc(CNC(=S)Nc2ccccc2F)cc1`, the kinetic solubility came out at 34 µg/mL (≈ 117 µM). The molecule `N#Cc1cccc(CS(=O)(=O)c2ccc(Cl)cc2)c1` displayed a solubility (kinetic) of 38.2 µg/mL (≈ 131 µM).

Molecule `CCOc1ccccc1C(=O)Nc1ccc(NC(=O)c2ccccc2)cc1` registered a kinetic solubility of 1.7 µg/mL (≈ 4.72 µM). In the case of `CN(C(=O)COC(=O)Cc1ccccc1[N+](=O)[O-])C1CCS(=O)(=O)C1` (stereo not given), the solubility (kinetic) is over 55.6 µg/mL.

As to `COc1ccc(-c2nonc2NC(=O)c2ccco2)cc1OC`, the kinetic solubility was over 47.3 µg/mL. In turn, `S=c1[nH]nc(Nc2ccccc2Cl)s1` registered a solubility (kinetic) of over 36.6 µg/mL.

The molecule `CCCC(=O)N(Cc1cc(=O)[nH]c2ccccc12)c1ccccc1C` returned a kinetic solubility of 41.1 µg/mL (≈ 123 µM). Take `CN(C)/C=C1\N=C(c2cccnc2Oc2ccc(Cl)cc2)OC1=O`: the solubility (kinetic) was determined as 1.6 µg/mL (≈ 4.65 µM). Take `Cc1ccc(C(=O)N/C(=C\c2ccco2)C(=O)N2CC(C)OC(C)C2)cc1C` (stereo not given): the solubility (kinetic) was over 57.4 µg/mL. `O=C(Nc1ccc(F)cc1)Nc1ccc2ccccc2n1` returned a kinetic solubility of under 0.2 µg/mL. As for `COc1ccc(-c2nc(N)ncc2-c2ccccc2)c(O)c1`, the solubility (kinetic) was found to be 0.9 µg/mL (≈ 3.07 µM). Then `CC(C)C(NC(=O)c1ccc(F)cc1)C(=O)NCC1CCCO1` (stereo not given), with over 48.4 µg/mL. `N/C(=N\OC(=O)c1cccc(Br)c1)c1ccccn1` yielded a kinetic solubility of 3 µg/mL (≈ 9.37 µM). In turn, `O=c1[nH]oc2cc(Cl)ccc12` yielded a solubility (kinetic) of over 25.4 µg/mL. The figure for `Cc1ccccc1NC(=O)c1ccc2nccnc2c1` is 37.3 µg/mL (≈ 142 µM).

In the case of `Cc1ccc(S(=O)(=O)NCC(=O)NCC2CCCCC2)cc1C`, the solubility (kinetic) is over 50.8 µg/mL. Consider `O=[N+]([O-])C(C1CCS(=O)(=O)C1)C1CCS(=O)(=O)C1` (stereo not given), for which the kinetic solubility came to 41.8 µg/mL (≈ 141 µM). Regarding `CC1CCN(C(=S)NC(=O)c2cccc([N+](=O)[O-])c2)CC1`, the kinetic solubility came to 34.2 µg/mL (≈ 111 µM). As for `O=C(O)c1ccccc1CSc1nc2ccccc2[nH]1`, the solubility (kinetic) is over 42.6 µg/mL.

Take `Cc1cccc(N=C2NC(=O)C(CO)(CO)S2)c1`: the kinetic solubility was found to be 22.4 µg/mL (≈ 84.1 µM). Then `N/C(=N\O)c1cccc(CS(=O)(=O)c2ccccn2)c1`, with 37 µg/mL (≈ 127 µM). The figure for `O=C(NCc1ccco1)C1CCCN1C(=O)Nc1ccc(Cl)cc1` (stereo not given) is 3.4 µg/mL (≈ 9.78 µM); for `N/C(CCS(=O)(=O)c1ccc(Cl)cc1)=N\OC(=O)c1ccccc1C(F)(F)F` it is 57 µg/mL (≈ 131 µM). Then `S=C(NCc1ccccc1)NCc1ccc(Cl)cc1`, with 2.3 µg/mL (≈ 7.91 µM).

As to `COC(=O)c1cccc(NC(=O)c2ccc3c(c2)C(=O)N(C(C)(C)C)C3=O)c1`, the kinetic solubility was under 0.4 µg/mL.

Consider `Oc1ccc(C=Nc2ccc3ncccc3c2)c(O)c1`, for which the kinetic solubility amounted to 30.5 µg/mL (≈ 115 µM). `O=C(OCC(=O)N1CCc2ccccc2C1)c1cccs1` showed a solubility (kinetic) of 36.8 µg/mL (≈ 122 µM). For the molecule `Cc1cc(C)n2nc(SCC(=O)N3CCCCC3C)nc2n1` (stereo not given), the solubility (kinetic) was over 47.9 µg/mL. Take `CCC(=O)c1ccc(OCC(=O)NC2CCCC2)cc1`: the solubility (kinetic) was over 41.3 µg/mL. In turn, `O=C(NCCc1ccccc1)c1cc2ccccc2oc1=O` registered a kinetic solubility of under 0.6 µg/mL. As to `Cc1cc(=O)oc2cc(NC(=S)NCc3cccnc3)ccc12`, the kinetic solubility was determined as 8.9 µg/mL (≈ 27.4 µM).

`O=C(COc1ccccc1Br)N1CCNC1=O`: the solubility (kinetic) stood at 42.2 µg/mL (≈ 141 µM).

Take `Cc1ccccc1NC(=O)COc1cccc2c1CCNC2=O`: the kinetic solubility came to 46.1 µg/mL (≈ 149 µM). For the molecule `CCOC(=O)C1CCCN(Cc2nc(C3CC3)no2)C1` (stereo not given), the kinetic solubility came out at 36.5 µg/mL (≈ 131 µM). The molecule `O=C(COC(=O)C1=COCCO1)NCc1ccc(F)cc1` showed a kinetic solubility of 40.3 µg/mL (≈ 136 µM). The molecule `COc1ccc(CCNC(=O)COC(=O)c2ccc(C)s2)cc1` displayed a kinetic solubility of 27.6 µg/mL (≈ 82.8 µM).

In the case of `CCOC(=O)c1cc(C(=O)NC(C)c2ccccc2)c(=O)[nH]c1C` (stereo not given), the solubility (kinetic) was found to be 1.6 µg/mL (≈ 4.87 µM). In turn, `CCOC(=O)CSc1nc2cc(C(F)(F)F)cnc2n1C` yielded a kinetic solubility of 44.9 µg/mL (≈ 141 µM). Turning to `CSCc1c(C(=O)Nc2ccc3c(c2)OCO3)oc2ccccc12`, the kinetic solubility stood at 6.4 µg/mL (≈ 18.7 µM).

`COCc1cc(C)nc(SCC(=O)NCC2CCCO2)c1C#N` (stereo not given) showed a solubility (kinetic) of over 50.3 µg/mL. In the case of `NC(=O)c1ccc(N=Cc2c(O)ccc3ccccc23)cc1`, the solubility (kinetic) was 10.3 µg/mL (≈ 35.5 µM). The molecule `COc1cc(N=Cc2c(CO)cnc(C)c2O)cc(OC)c1OC` registered a kinetic solubility of 49.2 µg/mL (≈ 148 µM). The figure for `O=C(NC(=S)Nc1cccc(O)c1)C1CCCCC1` is over 41.8 µg/mL. Regarding `O=C1CN(C(=O)/C=C/c2cc(Br)ccc2F)CCN1`, the kinetic solubility was over 49.1 µg/mL.

The molecule `CCC1CCCCN1C(=O)CSc1nc(N)cc(=O)[nH]1` (stereo not given) registered a solubility (kinetic) of 42.2 µg/mL (≈ 142 µM).

Molecule `O=C(O)CC[N+](=O)[O-]` came in with a solubility (kinetic) of over 17.9 µg/mL.

For `CCc1nc(Nc2cccc(OC)c2)c2oc3ccccc3c2n1.Cl`, the kinetic solubility was found to be 0.5 µg/mL. In turn, `O=C(Nc1ccncc1)c1ccc2ncsc2c1` yielded a kinetic solubility of 35.6 µg/mL (≈ 139 µM). Take `O=C(NCCC(=O)N1CCCCCCC1)c1ccc(Cl)cc1`: the solubility (kinetic) is over 48.4 µg/mL.

With `ClCC1=Nc2ccccc2Cc2ccccc21`, the solubility (kinetic) came to 4.8 µg/mL (≈ 19.9 µM). `Cc1ccccc1NC(=O)c1cc[n+]([O-])cc1` gave a solubility (kinetic) of over 34.2 µg/mL.

For the molecule `Cc1csc(NC(=O)c2cccnc2)n1`, the solubility (kinetic) stood at 32.5 µg/mL (≈ 148 µM). The figure for `C#Cc1ccc(CN2CCN(Cc3ccsc3)C(CCO)C2)cc1` (stereo not given) is 36.3 µg/mL (≈ 107 µM). In the case of `O=C(CCC(=O)c1ccc(Br)cc1)Nc1ccc(F)cc1`, the kinetic solubility was under 0.7 µg/mL. `CCN1C(=O)c2ccccc2Sc2ccc(C(=O)O)cc21` returned a kinetic solubility of over 44.9 µg/mL. `O=C(Oc1ccc(Br)cc1)c1cccnc1` gave a kinetic solubility of 34.3 µg/mL (≈ 123 µM). `CC(C)(C)C(=O)NC(=S)Nc1ccc(C(F)(F)F)cc1` showed a kinetic solubility of 1.1 µg/mL (≈ 3.61 µM). Molecule `Cc1ccc(S(=O)(=O)NCC(=O)NNC(=O)c2ccccc2Cl)cc1C` gave a kinetic solubility of over 59.4 µg/mL.
